Results as given in patent US20070289889A1, “Biomarkers For The Prediction Of Drug-In Duced Diarrhea” (NOVARTIS AG, priority 2003, published 2007).
Values joined by “and” are separate entries in the source; they are usually repeats but may differ in a detail not shown here. Identical values can stand only once.

How the values were obtained:
white blood cells = assay: mRNA expression profiles of white blood cells after treatment, no diarrhoea vs. diarrhoea subjects; type: in vivo, human; details: treated; for Signal Value 297_g_at (Tubulin, beta) / Signal Value 477_at (IRF5) / Signal Value 1274_s_at (CDC34) / Signal Value 33336_at (SLC4A1) / Signal Value 33759_at (BPGM) / Signal Value 37285_at (ALAS2) / Signal Value 37405_at (SELENBP1) / Signal Value 39436_at (BNIP3L): average of arrays
Description: Samples. Forty-three out of the ninety-one subjects who enrolled in the clinical trial consented to clinical pharmacogenetics analysis. For each subject, two clinical pharmacogenetics blood samples were scheduled: baseline and on Day 2 of Week 1 at hour 24. White blood cell (WBC) pellets were ficoll-hypaque separated from the whole blood by the investigator, frozen at −80° C. mRNA was extracted and profiled on the Affymetrix U95A GeneChip® platform.
mRNA expression profiling analysis. Any array with greater than 20% of genes called present by the Affymetrix MAS5 algorithm was a candidate for the analyses described herein. Affymetrix, “New statistical algorithms for monitoring gene expression on GeneChip® probe arrays.” Affymetrix Technical Notes. (2001). […] Forty-two out of the possible eighty-six arrays met the quality standards needed for analysis.
(§1) Statistical analysis. Fisher's Exact tests were performed to compare the demographics of the clinical pharmacogenetics participants to the overall trial population. An analysis of variance (ANOVA) was used to determine whether mRNA gene expression patterns correlated to either treatment status (baseline vs. treated), to experiencing diarrhoea (no diarrhoea vs. diarrhoea) or to whether specific blood cell type levels correlated to experiencing diarrhoea. All statistical analyses were performed using the SigmaStat 2.03 and SAS 8.02 programs.
Because there were only three subjects who experienced grade 3 diarrhoea, all fifteen subjects who experienced any grade of diarrhoea were grouped together to strengthen the statistical power of this analysis.
A comparison of the mRNA expression profiles of white blood cells identified eight genes with statistically significant differences between the two groups of subjects 24 hours after epothilone B administration. See, TABLE 3.
Compare, TABLE 8 and TABLE 13.

[1] = Blood cell, haematocrit and haemoglobin levels after epothilone B treatment by diarrhoea status; type: in vivo, human; details: for Basophils / Eosinophils / Haematocrit / Haemoglobin / Lymphocytes / Monocytes / Neutrophils / Platelets / White Blood Cells: CPG subjects after a single dose, mean ± SEM
Description: as §1
Next, the levels of each blood cell type were compared between the two groups of subjects. Because these values were not determined at the blood draw timepoint, values for the second blood draw timepoint after baseline in cycle 1, corresponding to the first blood draw after the first epothilone B treatment (usually 24 hours after the […]) were used for this comparison. […] See, TABLE 4 and FIGS. 1-2.
Because females generally have lower levels of haematocrit and haemoglobin compared to males, a similar analysis was done by sex. As shown in TABLE 5 and FIGS. 1-2, similar trends in haematocrit and haemoglobin levels were identified for each sex. To determine if these associations exist for the entire trial subject population, the haematocrit and haemoglobin levels for all subjects at the second blood draw after baseline in cycle 1 were investigated.

[2] = tested on: drug-sensitive and multidrug-resistant cells overexpressing P-glycoprotein; details: cited from earlier work
[3] = 24 hours, any grade of diarrhoea
[4] = CPG Females after a single dose, Diarrhoea (n = 10)
[5] = CPG Females after a single dose, No Diarrhoea (n = 4)
[6] = CPG Males after a single dose, Diarrhoea (n = 5)
[7] = CPG Males after a single dose, No Diarrhoea (n = 1)
[8] = all Females after treatment, Diarrhoea (n = 42)
[9] = all Females after treatment, No Diarrhoea (n = 22)
[10] = all Males after treatment, Diarrhoea (n = 16)
[11] = all Males after treatment, No Diarrhoea (n = 11)
[12] = all subjects after treatment, Diarrhoea any grade (n = 58)
[13] = all subjects after treatment, No Diarrhoea (n = 33)

With `C/C(=C\c1csc(C)n1)[C@@H]1C[C@@H]2O[C@]2(C)CCC[C@H](C)[C@H](O)[C@@H](C)C(=O)C(C)(C)[C@@H](O)CC(=O)O1` [epothilone B, Epothilone B] the “Fold Change [diarrhoea/no diarrhoea] ALAS2 (37285_at) mRNA” value (white blood cells; [3]) was −9.6, the “Fold Change [diarrhoea/no diarrhoea] BNIP3L (39436_at) mRNA” value (white blood cells; [3]) was −2.8 and the “Fold Change [diarrhoea/no diarrhoea] BPGM (33759_at) mRNA” value (white blood cells; [3]) was −4.9. The “Fold Change [diarrhoea/no diarrhoea] CDC34 (1274_s_at) mRNA” value (white blood cells; [3]) was −2.2, the “Fold Change [diarrhoea/no diarrhoea] IRF5 (477_at) mRNA” value (white blood cells; [3]) was 2.9 and the “Fold Change [diarrhoea/no diarrhoea] SELENBP1 (37405_at) mRNA” value (white blood cells; [3]) was −11.3. The “Fold Change [diarrhoea/no diarrhoea] SLC4A1 (33336_at) mRNA” value (white blood cells; [3]) was −15.3, the “Fold Change [diarrhoea/no diarrhoea] Tubulin, beta (297_g_at) mRNA” value (white blood cells; [3]) was −3.9 and the “Signal Value 297_g_at (Tubulin, beta)” value (white blood cells; Diarrhoea (any grade) subjects) was 59. The “Signal Value 477_at (IRF5)” value (white blood cells; Diarrhoea (any grade) subjects) was 278, the “Signal Value 1274_s_at (CDC34)” value (white blood cells; Diarrhoea (any grade) subjects) was 128 and the “Signal Value 33336_at (SLC4A1)” value (white blood cells; Diarrhoea (any grade) subjects) was 93. The “Signal Value 33759_at (BPGM)” value (white blood cells; Diarrhoea (any grade) subjects) was 70, the “Signal Value 37285_at (ALAS2)” value (white blood cells; Diarrhoea (any grade) subjects) was 448 and the “Signal Value 37405_at (SELENBP1)” value (white blood cells; Diarrhoea (any grade) subjects) was 106. For the same compound, the “Signal Value 39436_at (BNIP3L)” value (white blood cells; Diarrhoea (any grade) subjects) was 1476, the “Signal Value 297_g_at (Tubulin, beta)” value (white blood cells; No Diarrhoea subjects) was 232 and the “Signal Value 477_at (IRF5)” value (white blood cells; No Diarrhoea subjects) was 97. For the same compound, the “Signal Value 1274_s_at (CDC34)” value (white blood cells; No Diarrhoea subjects) was 278, the “Signal Value 33336_at (SLC4A1)” value (white blood cells; No Diarrhoea subjects) was 1421 and 1422 and the “Signal Value 33759_at (BPGM)” value (white blood cells; No Diarrhoea subjects) was 344. For the same compound, the “Signal Value 37285_at (ALAS2)” value (white blood cells; No Diarrhoea subjects) was 4292, the “Signal Value 37405_at (SELENBP1)” value (white blood cells; No Diarrhoea subjects) was 1200 and the “Signal Value 39436_at (BNIP3L)” value (white blood cells; No Diarrhoea subjects) was 4200. For the same compound, the “Fold Change [diarrhoea/no diarrhoea] 297_g_at (Tubulin, beta)” value (white blood cells; grade 3 diarrhoea) was −3.0, the “Fold Change [diarrhoea/no diarrhoea] 477_at (IRF5)” value (white blood cells; grade 3 diarrhoea) was “^f2.7” and the “Fold Change [diarrhoea/no diarrhoea] 1274_s_at (CDC34)” value (white blood cells; grade 3 diarrhoea) was −2.3. For the same compound, the “Fold Change [diarrhoea/no diarrhoea] 33336_at (SLC4A1)” value (white blood cells; grade 3 diarrhoea) was −15.9, the “Fold Change [diarrhoea/no diarrhoea] 33759_at (BPGM)” value (white blood cells; grade 3 diarrhoea) was “^f−6.7” and the “Fold Change [diarrhoea/no diarrhoea] 37285_at (ALAS2)” value (white blood cells; grade 3 diarrhoea) was −10.0. The “Fold Change [diarrhoea/no diarrhoea] 37405_at (SELENBP1)” value (white blood cells; grade 3 diarrhoea) was “^f−10.3”, the “Fold Change [diarrhoea/no diarrhoea] 39436_at (BNIP3L)” value (white blood cells; grade 3 diarrhoea) was −2.8 and the “Signal Value 297_g_at (Tubulin, beta)” value (white blood cells; grade 3 diarrhoea subjects) was 77. The “Signal Value 477_at (IRF5)” value (white blood cells; grade 3 diarrhoea subjects) was 264, the “Signal Value 1274_s_at (CDC34)” value (white blood cells; grade 3 diarrhoea subjects) was 123 and the “Signal Value 33336_at (SLC4A1)” value (white blood cells; grade 3 diarrhoea subjects) was 90. For the same compound, the “Signal Value 33759_at (BPGM)” value (white blood cells; grade 3 diarrhoea subjects) was 51, the “Signal Value 37285_at (ALAS2)” value (white blood cells; grade 3 diarrhoea subjects) was 428 and the “Signal Value 37405_at (SELENBP1)” value (white blood cells; grade 3 diarrhoea subjects) was 113. The “Signal Value 39436_at (BNIP3L)” value (white blood cells; grade 3 diarrhoea subjects) was 1489, the HCT [1, 4] was 35.63 ± 0.01% and the HGB [1, 4] was 12.01 ± 0.35 g/dL. The HCT [1, 5] was 30.63 ± 0.20%, the HGB [1, 5] was 10.40 ± 0.20 g/dL and the HCT [1, 6] was 38.30 ± 1.77%. It also gave an HGB [1, 6] of 13.18 ± 0.62 g/dL, an HCT [1, 7] of 26.30% and an HGB [1, 7] of 8.70 g/dL. For the same compound, the Basophils ([1]; Diarrhoea (n = 15)) was 0.57 ± 0.12%, the Eosinophils ([1]; Diarrhoea (n = 15)) was 2.74 ± 0.45% and the Haematocrit ([1]; Diarrhoea (n = 15)) was 36.11 ± 0.91%. It also gave a Haemoglobin ([1]; Diarrhoea (n = 15)) of 12.40 ± 0.33 g/dL, a Lymphocytes ([1]; Diarrhoea (n = 15)) of 19.92 ± 1.92% and a Monocytes ([1]; Diarrhoea (n = 15)) of 7.88 ± 0.71%. The Neutrophils ([1]; Diarrhoea (n = 15)) was 68.81 ± 2.38%, the Platelets ([1]; Diarrhoea (n = 15)) was 259.20 ± 23.25 THOU/MM^3 and the “White Blood Cells” value ([1]; Diarrhoea (n = 15)) was 5.60 ± 0.44 THOU/MM^3. For the same compound, the Basophils ([1]; No Diarrhoea (n = 5)) was 0.64 ± 0.22%, the Eosinophils ([1]; No Diarrhoea (n = 5)) was 3.42 ± 0.73% and the Haematocrit ([1]; No Diarrhoea (n = 5)) was 29.76 ± 0.87%. For the same compound, the Haemoglobin ([1]; No Diarrhoea (n = 5)) was 10.06 ± 0.84 g/dL, the Lymphocytes ([1]; No Diarrhoea (n = 5)) was 14.50 ± 0.74% and the Monocytes ([1]; No Diarrhoea (n = 5)) was 8.10 ± 0.74%. The Neutrophils ([1]; No Diarrhoea (n = 5)) was 73.60 ± 2.05%, the Platelets ([1]; No Diarrhoea (n = 5)) was 334.40 ± 54.80 THOU/MM^3 and the “White Blood Cells” value ([1]; No Diarrhoea (n = 5)) was 5.92 ± 0.87 THOU/MM^3. For the same compound, the HCT [1, 8] was 34.34 ± 0.69%, the HGB [1, 8] was 11.56 ± 0.25 g/dL and the HCT [1, 9] was 33.17 ± 0.94%. For the same compound, the HGB [1, 9] was 11.13 ± 0.30 g/dL, the HCT [1, 10] was 32.84 ± 1.50% and the HGB [1, 10] was 12.46 ± 0.44 g/dL. It also gave an HCT [1, 11] of 37.48 ± 1.39%, an HGB [1, 11] of 11.06 ± 0.46 g/dL and an HCT [1, 12] of 35.21 ± 0.67%. For the same compound, the HGB [1, 12] was 11.81 ± 0.22 g/dL, the HCT [1, 13] was 33.06 ± 0.77% and the HGB [1, 13] was 11.11 ± 0.25 g/dL. For the same compound, the “cytotoxicity, drug-sensitive vs. multidrug-resistant cells” value [2] was “equally cytotoxic”.
